Columns and labels:
[1] = tested on: 5-fluorouracil (5-FU) resistant strain of colon cancer cell strain DLD-1; experiment: IC50 measurement on 5-fluorouracil resistant strain derived from DLD-1; format: cell-based; conditions: Homo sapiens; DLD-1 maintained 6 months or longer in the presence of 5-fluorouracil; confirmed resistant strain; read-out: IC50 with respect to 5-fluorouracil for the cultured cells
[2] = tested on: trifluridine (FTD) resistant strain of colon cancer cell strain DLD-1; experiment: IC50 measurement on trifluridine resistant strain derived from DLD-1; format: cell-based; conditions: Homo sapiens; DLD-1 maintained 6 months or longer in the presence of trifluridine; confirmed resistant strain; read-out: IC50 with respect to trifluridine for the cultured cells
Procedure: Quantitative analysis of a microRNA was performed by tunneling current measurement. Colon cancer cell strain (DLD1) and 5-fluorouracil (5-FU) or trifluridine (FTD) resistant strains were used as samples.
Cancer cell strain DLD-1 obtained from a cell bank was maintained in a culture for 6 months or longer in the presence of trifluridine or 5-fluorouracil (Aldrich-Sigma) (about […]). The maintained culture was passaged about twice a week to maintain 60 to 80% confluence at 37° C. in a
DMEM medium supplemented with 10% serum on a plastic dish.

IC50 [1] | IC50 [2] | SMILES
300 µM | – | O=c1[nH]cc(F)c(=O)[nH]1 [5-fluorouracil]
– | 300 µM | O=c1[nH]c(=O)n([C@H]2C[C@H](O)[C@@H](CO)O2)cc1C(F)(F)F [trifluridine]

Source: patent US20230194472A1, “MICRORNA ANALYSIS USING TUNNELING CURRENT” (Osaka University, priority 2019, published 2023)
